From patent publication US11124537B2, “Inhibitors of glucocorticoid receptor” (ORIC Pharmaceuticals, Inc., priority 2015, dated 2021) come the findings set out here.

pIC50: −log10 of the molar value.

GR, sequence (P04150 whole entry): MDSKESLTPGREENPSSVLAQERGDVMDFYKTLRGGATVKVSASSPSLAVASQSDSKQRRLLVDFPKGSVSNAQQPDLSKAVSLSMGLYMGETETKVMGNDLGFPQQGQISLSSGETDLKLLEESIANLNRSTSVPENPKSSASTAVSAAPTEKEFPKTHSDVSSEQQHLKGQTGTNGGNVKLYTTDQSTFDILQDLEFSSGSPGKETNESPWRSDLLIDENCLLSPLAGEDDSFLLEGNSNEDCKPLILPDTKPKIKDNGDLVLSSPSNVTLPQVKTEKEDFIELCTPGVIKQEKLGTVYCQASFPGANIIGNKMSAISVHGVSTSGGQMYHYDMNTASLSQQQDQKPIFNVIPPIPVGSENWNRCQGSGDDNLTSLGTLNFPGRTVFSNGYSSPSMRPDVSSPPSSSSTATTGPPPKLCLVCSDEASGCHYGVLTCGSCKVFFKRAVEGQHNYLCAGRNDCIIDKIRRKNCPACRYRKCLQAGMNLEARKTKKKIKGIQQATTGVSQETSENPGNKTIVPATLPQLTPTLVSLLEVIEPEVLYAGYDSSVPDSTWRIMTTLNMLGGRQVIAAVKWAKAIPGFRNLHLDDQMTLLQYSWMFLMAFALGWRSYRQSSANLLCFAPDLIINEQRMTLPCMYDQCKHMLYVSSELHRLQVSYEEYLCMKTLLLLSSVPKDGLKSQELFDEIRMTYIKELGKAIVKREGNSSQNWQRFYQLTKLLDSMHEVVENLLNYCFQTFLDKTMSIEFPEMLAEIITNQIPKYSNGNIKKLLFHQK

The target of the experiment is GR (Homo sapiens (Human), UniProt P04150). Briefly: In Vitro GR Luciferase Reporter Assay. The class given is cell-based. The note with it: CHO-K1-GR-MMTV-Luc reporter cells, antagonist assay, 10 nM Dexamethasone, 18-24 hours. The text has this:
Example 4: In Vitro GR Luciferase Reporter Assay
Cell Line: CHO-K1-GR-MMTV-Luc reporter cells
Culture Media: DMEM (with phenol red)+10% FBS
Assay Media: DMEM (without phenol red)+10% CSS
Culture CHO-K1-GR-MMTV-Luc reporter cells in 15 cm plates in Culture Media at conditions less than 90% confluence.
Prepare 200×DMSO 1:5 serial dilutions of control and test compounds in 96-well non-sterile V bottom plate in DMSO, 8 serial dilutions for each compound.
Prepare 5× Assay Media diluted compound serial dilutions in 96-well non-sterile V bottom plate: Add 97.5 uL/well of Assay Media into 96-well then add 2.5 ul of 200× concentration of compounds and mix well.
Seed cells for Antagonist Assay: […] CHO-K1-GR-MMTV-Luc reporter cells were seeded in a Corning 3707 flat clear bottom 384-well white TC plate in 20 ul of Assay Media containing 12.5 nM Dexamethasone (final concentration=10 nM).
Add compounds: 5 ul of assay media diluted compounds were added to appropriate wells and followed a quick spin (1000 rpm, 10 sec) to bring media and cells to the bottom of plate. The plates were covered with SealMate film to avoid evaporation and placed in 37° C. incubator for approximately 18-24 hours.
Read plates: Equilibrate appropriate amount of Promega OneGlo luciferase reagent to room temperature. Remove the plates from incubator and add 25 uL of OneGlo reagent/well by multiple channel pipette and read the plates with Tecan F500 luminometer within 3 minutes.
The ability of the compounds disclosed herein to inhibit GR activity was quantified and the respective IC50 value was determined. Table 3 provides the cellular IC50 values of various substituted steroidal compounds disclosed herein.
A general note: A reporter such as luciferase makes a cellular process visible.
The molecule `COc1ccc([C@H]2C[C@@]3(C)[C@@H](CC[C@@]3(O)C#CC(C)(C)C)[C@@H]3CCC4=CC(=O)CCC4=C32)cc1` had a pIC50 not below 7.00.
`CC(C)C#C[C@]1(O)CC[C@H]2[C@@H]3CCC4=CC(=O)CCC4=C3[C@@H](c3c(F)cc(N4CCOCC4)cc3F)C[C@@]21C` [drawing 294]: the pIC50 is not below 7.00.
The molecule `CC(C)(C)C#C[C@]1(O)CC[C@H]2[C@@H]3CCC4=CC(=O)CCC4=C3[C@@H](c3ccc4c(c3)OCCO4)C[C@@]21C` showed a pIC50 not below 7.00.
As to `CC(C)N(C)c1ccc([C@H]2C[C@@]3(C)[C@@H](CC[C@@]3(O)C#CC3(C)COC3)[C@@H]3CCC4=CC(=O)CCC4=C32)cc1`, the pIC50 was not below 7.00.
Regarding `CC(C)C#C[C@]1(O)CC[C@H]2[C@@H]3CCC4=CC(=O)CCC4=C3[C@@H](c3c(F)cc(N4CCCC4)cc3F)C[C@@]21C`, the pIC50 is not below 7.00.
`CN(C)c1cc(F)c([C@H]2C[C@@]3(C)[C@@H](CC[C@@]3(O)C#CC(C)(C)C)[C@@H]3CCC4=CC(=O)CCC4=C32)cc1F` [drawing 304] had a pIC50 not below 7.00.
`CC(=O)N1CCN(c2ccc([C@H]3C[C@@]4(C)[C@@H](CC[C@@]4(O)C#CC(C)(C)C)[C@@H]4CCC5=CC(=O)CCC5=C43)cc2)CC1` had a pIC50 not below 7.00.
For `CN(C)c1ccc([C@H]2C[C@@]3(C)[C@@H](CC[C@@]3(O)C#CC(C)(C)C)[C@@H]3CCC4=CC(=O)CCC4=C32)c(F)c1F`, the pIC50 was not below 7.00.
Regarding `CN(C)c1cc(F)c([C@H]2C[C@@]3(C)[C@@H](CC[C@@]3(O)C#CC(C)(C)C)[C@@H]3CCC4=CC(=O)CCC4=C32)c(F)c1`, the pIC50 is not below 7.00.
Take `CC(C)C#C[C@]1(O)CC[C@H]2[C@@H]3CCC4=CC(=O)CCC4=C3[C@@H](c3ccc(N(C)C)c(F)c3)C[C@@]21C`: the pIC50 was not below 7.00.
The result for `CC(C)(C)C#C[C@]1(O)CC[C@H]2[C@@H]3CCC4=CC(=O)CCC4=C3[C@@H](c3ccc(N4CCS(=O)(=O)CC4)cc3)C[C@@]21C` reads not below 7.00; that for `CC(C)(C)C#C[C@]1(O)CC[C@H]2[C@@H]3CCC4=CC(=O)CCC4=C3[C@@H](c3cc(F)c(-c4cncnc4)cc3F)C[C@@]21C`, not below 7.00; that for `CN(C)c1ccc([C@H]2C[C@@]3(C)[C@@H](CC[C@@]3(O)C#CCO)[C@@H]3CCC4=CC(=O)CCC4=C32)cc1`, less than 7.00.
As to `CN(C)c1ccc([C@H]2C[C@@]3(C)[C@@H](CC[C@@]3(O)C#CC3CC3)[C@@H]3CCC4=CC(=O)CCC4=C32)c(F)c1F` [drawing 303], the pIC50 is not below 7.00.
In turn, `CCc1ccc([C@H]2C[C@@]3(C)[C@@H](CC[C@@]3(O)C#Cc3ccccc3)[C@@H]3CCC4=CC(=O)CCC4=C32)cc1` had a pIC50 not below 7.00.
For `CC(C)C#C[C@]1(O)CC[C@H]2[C@@H]3CCC4=CC(=O)CCC4=C3[C@@H](c3ccc4c(c3)OCCO4)C[C@@]21C`, the pIC50 is not below 7.00.
As for `C[C@]12C[C@H](c3ccc4c(c3)OCO4)C3=C4CCC(=O)C=C4CC[C@H]3[C@@H]1CC[C@@]2(O)C#CC1CC1`, the pIC50 was not below 7.00.
Consider `Cc1ccc([C@H]2C[C@@]3(C)[C@@H](CC[C@@]3(O)C#CC(F)(F)F)[C@@H]3CCC4=CC(=O)CCC4=C32)cc1F`, for which the pIC50 was less than 7.00.
Then `COCCN(C)c1ccc([C@H]2C[C@@]3(C)[C@@H](CC[C@@]3(O)C#CC(C)(C)OC)[C@@H]3CCC4=CC(=O)CCC4=C32)cc1`, with not below 7.00; and `CN(CC(F)(F)F)c1ccc([C@H]2C[C@@]3(C)[C@@H](CC[C@@]3(O)C#CC(C)(C)C)[C@@H]3CCC4=CC(=O)CCC4=C32)cc1`, with not below 7.00.
Then `Cc1ccc([C@H]2C[C@@]3(C)[C@@H](CC[C@@]3(O)C#CC(C)(C)C)[C@@H]3CCC4=CC(=O)CCC4=C32)cc1F`, with not below 7.00.
`C[C@@H]1C[C@H]2[C@@H]3CCC4=CC(=O)CCC4=C3[C@@H](c3ccc(N(C)C)cc3)C[C@]2(C)[C@]1(O)C#CC(C)(C)C` [drawing 335] gave a pIC50 of less than 7.00.
As for `CC(C)(C)C#C[C@]1(O)CC[C@H]2[C@@H]3CCC4=CC(=O)CCC4=C3[C@@H](c3ccc(C(C)(C)C)cc3)C[C@@]21C` [drawing 268], the pIC50 was not below 7.00.
In turn, `COCCN(C)c1ccc([C@H]2C[C@@]3(C)[C@@H](CC[C@@]3(O)C#CC(C)(C)C)[C@@H]3CCC4=CC(=O)CCC4=C32)cc1` had a pIC50 not below 7.00.
`CC(C)N(C)c1ccc([C@H]2C[C@@]3(C)[C@@H](CC[C@@]3(O)C#CC(C)(C)C)[C@@H]3CCC4=CC(=O)CCC4=C32)cc1` showed a pIC50 not below 7.00.
Then `CC(C)C#C[C@]1(O)CC[C@H]2[C@@H]3CCC4=CC(=O)CCC4=C3[C@@H](c3cc(F)c(N(C)C)cc3F)C[C@@]21C`, with not below 7.00; and `Cc1c(F)cc([C@H]2C[C@@]3(C)[C@@H](CC[C@@]3(O)C#Cc3ccc(S(C)(=O)=O)cc3)[C@@H]3CCC4=CC(=O)CCC4=C32)cc1F` [drawing 293], with not below 7.00.
For the molecule `COC(C)(C)C#C[C@]1(O)CC[C@H]2[C@@H]3CCC4=CC(=O)CCC4=C3[C@@H](c3ccc(N(C)C)cc3)C[C@@]21C`, the pIC50 is not below 7.00.
Molecule `COc1ccc([C@H]2C[C@@]3(C)[C@@H](CC[C@@]3(O)C#CC(C)C)[C@@H]3CCC4=CC(=O)CCC4=C32)cc1F` had a pIC50 not below 7.00.
Consider `C[C@]12C[C@H](c3ccc4c(c3)OCO4)C3=C4CCC(=O)C=C4CC[C@H]3[C@@H]1CC[C@@]2(O)C#CC(F)(F)F`, for which the negative logarithm of the IC50 (pIC50) is not below 7.00.
On to `CN(CC1CC1)c1ccc([C@H]2C[C@@]3(C)[C@@H](CC[C@@]3(O)C#CC(C)(C)C)[C@@H]3CCC4=CC(=O)CCC4=C32)cc1`, for which the pIC50 is less than 7.00.
`CC(C)(C)C#C[C@]1(O)CC[C@H]2[C@@H]3CCC4=CC(=O)CCC4=C3[C@@H](c3ccc(C4(C)COC4)cc3)C[C@@]21C` had a pIC50 not below 7.00.
In turn, `CC(C)(C)C#C[C@]1(O)CC[C@H]2[C@@H]3CCC4=CC(=O)CCC4=C3[C@@H](c3cc(F)c(-c4ccncc4)cc3F)C[C@@]21C` gave a pIC50 not below 7.00.
`CC(C)(C)C#C[C@]1(O)CC[C@H]2[C@@H]3CCC4=CC(=O)CCC4=C3[C@@H](c3cccc(C4CC4)c3)C[C@@]21C` [drawing 279]: the pIC50 is less than 7.00.
Regarding `CN(C)c1ccc([C@H]2C[C@@]3(C)[C@@H](CC[C@@]3(O)C#Cc3ccc(Cl)cc3)[C@@H]3CCC4=CC(=O)CCC4=C32)cc1`, the pIC50 was not below 7.00.
On to `CCC#C[C@]1(O)CC[C@H]2[C@@H]3CCC4=CC(=O)CCC4=C3[C@@H](c3ccc4c(c3)OCCO4)C[C@@]21C` [drawing 324], for which the pIC50 is not below 7.00.
The result for `COC(C)(C)C#C[C@]1(O)CC[C@H]2[C@@H]3CCC4=CC(=O)CCC4=C3[C@@H](c3ccc(N4CCS(=O)(=O)CC4)cc3)C[C@@]21C` reads less than 7.00; that for `COC(C)(C)C#C[C@]1(O)CC[C@H]2[C@@H]3CCC4=CC(=O)CCC4=C3[C@@H](c3ccc(N4CCN(C(=O)CO)CC4)cc3)C[C@@]21C`, less than 7.00.
Take `CN(C)c1c(F)cc([C@H]2C[C@@]3(C)[C@@H](CC[C@@]3(O)C#CC3CC3)[C@@H]3CCC4=CC(=O)CCC4=C32)cc1F`: the pIC50 was not below 7.00.
Then `COC(C)(C)C#C[C@]1(O)CC[C@H]2[C@@H]3CCC4=CC(=O)CCC4=C3[C@@H](c3ccc(N(C)CC(F)(F)F)cc3)C[C@@]21C`, with not below 7.00.
In the case of `CC(C)Oc1cccc([C@H]2C[C@@]3(C)[C@@H](CC[C@@]3(O)C#CC(F)(F)F)[C@@H]3CCC4=CC(=O)CCC4=C32)c1`, the pIC50 is less than 7.00.
Consider `Cc1c(F)cc([C@H]2C[C@@]3(C)[C@@H](CC[C@@]3(O)C#CC(F)(F)F)[C@@H]3CCC4=CC(=O)CCC4=C32)cc1F`, for which the pIC50 was less than 7.00.
Regarding `C[C@]12C[C@H](c3ccc4c(c3)OCCO4)C3=C4CCC(=O)C=C4CC[C@H]3[C@@H]1CC[C@@]2(O)C#CC1CC1`, the pIC50 was not below 7.00.
`Cc1c(F)cc([C@H]2C[C@@]3(C)[C@@H](CC[C@@]3(O)C#CC(C)C)[C@@H]3CCC4=CC(=O)CCC4=C32)cc1F` had a pIC50 not below 7.00.
Molecule `CC(C)C#C[C@]1(O)CC[C@H]2[C@@H]3CCC4=CC(=O)CCC4=C3[C@@H](c3cc(F)c(C(C)C)c(F)c3)C[C@@]21C` [drawing 299] showed a pIC50 not below 7.00.
`CN(C)c1ccc([C@H]2C[C@@]3(C)[C@@H](CC[C@@]3(O)C#Cc3ccc(C(C)(C)C)cc3)[C@@H]3CCC4=CC(=O)CCC4=C32)cc1` gave a pIC50 of less than 7.00.
For `[2H]C([2H])([2H])C#C[C@]1(O)CC[C@H]2[C@@H]3CCC4=CC(=O)CCC4=C3[C@@H](c3cc(F)c(C)c(F)c3)C[C@@]21C`, the pIC50 was not below 7.00.
The molecule `CC(C)(C)C#C[C@]1(O)CC[C@H]2[C@@H]3CCC4=CC(=O)CCC4=C3[C@@H](c3ccc4c(c3)OCO4)C[C@@]21C` [drawing 331] showed a pIC50 not below 7.00.
In turn, `CCN(CC)c1cc(F)c([C@H]2C[C@@]3(C)[C@@H](CC[C@@]3(O)C#CC(C)C)[C@@H]3CCC4=CC(=O)CCC4=C32)c(F)c1` gave a pIC50 not below 7.00.

What is called pIC50 is −log10 of the IC50, conventionally taken in molar units. Read a high pIC50 as a small IC50.
